According to ChEMBL document CHEMBL1132515, “4-Chlorobenzyl sulfonamide and sulfamide derivatives of histamine homologues: the design of potent histamine H3 receptor antagonists” (Bioorg Med Chem Lett, 1999):

Each compound was assayed against Histamine H3 receptor (Cavia porcellus, UniProt Q9JI35) (assay: Ability to displace [3H]R-alpha-methylhistamine from histamine H3 receptor in guinea pig ileum longitudinal muscle myenteric plexus(LMMP) membranes).
Type: tissue-based

Sequence of Histamine H3 receptor (Q9JI35 whole entry): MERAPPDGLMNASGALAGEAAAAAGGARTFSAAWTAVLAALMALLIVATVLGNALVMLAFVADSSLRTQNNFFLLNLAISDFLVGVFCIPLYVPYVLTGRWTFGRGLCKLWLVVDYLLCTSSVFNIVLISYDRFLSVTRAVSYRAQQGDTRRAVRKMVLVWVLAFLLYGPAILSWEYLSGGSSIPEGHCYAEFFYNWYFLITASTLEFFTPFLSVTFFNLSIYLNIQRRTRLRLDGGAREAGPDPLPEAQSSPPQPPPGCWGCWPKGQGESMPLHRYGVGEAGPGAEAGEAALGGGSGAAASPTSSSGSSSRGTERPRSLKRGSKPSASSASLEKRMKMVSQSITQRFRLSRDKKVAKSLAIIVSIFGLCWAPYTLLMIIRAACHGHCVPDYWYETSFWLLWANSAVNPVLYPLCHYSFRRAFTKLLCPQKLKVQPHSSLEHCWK

SMILES | Ki
O=S(=O)(NCCCCCCCCc1c[nH]cn1)NCc1ccc(Cl)cc1 | 13.2 nM
O=S(=O)(NCCCCc1c[nH]cn1)NCc1ccc(C(F)(F)F)cc1 | 2.63 nM

The compounds below were run against Histamine H3 receptor (Cavia porcellus) (UniProt Q9JI35) (assay: Inhibition of neurogenic contractions in guinea pig ileum mediated by histamine H3 receptors).
Sequence of Histamine H3 receptor (Cavia porcellus) (Q9JI35 whole entry): as above
Type: functional, tissue-based

SMILES | pKB
O=S(=O)(NCCCCc1c[nH]cn1)NCc1ccc(Br)cc1 | 8.91
O=S(=O)(NCCCCc1c[nH]cn1)NCc1ccccc1Cl | 6.42
O=S(=O)(Cc1ccc(-c2ccccc2)cc1)NCCCCc1c[nH]cn1 | 8.1
O=S(=O)(Cc1ccc(Br)cc1)NCCCCc1c[nH]cn1 | 7.68
COc1ccc(CNS(=O)(=O)NCCCCc2c[nH]cn2)cc1 | 7.06
O=S(=O)(Cc1ccc(Cl)cc1)NCCCCCCCCCCc1c[nH]cn1 | < 5
O=S(=O)(Cc1ccc(Cl)cc1)NCCCc1c[nH]cn1 | 6.29
O=S(=O)(Cc1ccc(C(F)(F)F)cc1)NCCCCc1c[nH]cn1 | 7.89
O=S(=O)(Cc1ccc(Cl)cc1)NCCCCCCc1c[nH]cn1 | 8.01
O=S(=O)(NCCCc1c[nH]cn1)NCc1ccc(Cl)cc1 | 7.04
O=S(=O)(NCCCCCCCc1c[nH]cn1)NCc1ccc(Cl)cc1 | 8.37
O=S(=O)(Cc1ccc(Cl)cc1)NCCCCCCCCc1c[nH]cn1 | 6.64
O=S(=O)(NCCCCc1c[nH]cn1)NCc1ccc(Cl)cc1 | 8.68
O=S(=O)(Cc1ccc(Cl)cc1)NCCCCCc1c[nH]cn1 | 7.33
O=S(=O)(NCCCCc1c[nH]cn1)NCc1ccc(F)cc1 | 7.7
O=S(=O)(Cc1ccc(Cl)cc1)NCCCCc1c[nH]cn1 | 8.62
O=S(=O)(NCCCCc1c[nH]cn1)NCc1ccc(-c2ccccc2)cc1 | 8.32
O=S(=O)(NCCCCc1c[nH]cn1)NCc1ccccc1 | 7.01
O=S(=O)(Cc1ccc(Cl)cc1)NCCCCCCCc1c[nH]cn1 | 7.36
O=S(=O)(Cc1ccc(F)cc1)NCCCCc1c[nH]cn1 | 7.32
O=S(=O)(NCCCCCc1c[nH]cn1)NCc1ccc(Cl)cc1 | 8.2
O=S(=O)(NCCCCCCCCc1c[nH]cn1)NCc1ccc(Cl)cc1 | 7.37
O=S(=O)(NCCCCc1c[nH]cn1)NCc1ccc(C(F)(F)F)cc1 | 8.48
O=S(=O)(NCCCCCCCCCCc1c[nH]cn1)NCc1ccc(Cl)cc1 | < 5
O=S(=O)(NCCCCc1c[nH]cn1)NCc1ccc(I)cc1 | 8.49
O=S(=O)(NCCCCc1c[nH]cn1)NCc1cccc(Cl)c1 | 7.86
O=S(=O)(NCCCCCCc1c[nH]cn1)NCc1ccc(Cl)cc1 | 8.77
